Measurements taken from ChEMBL document CHEMBL1201862, “PubChem BioAssay data set” (2004).
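All cell lines were grown in 96-well plates and treated with compound for 48 hours. GI50: concentration for 50% inhibition of growth.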 Calls of active or inactive are those of the source. No stated cut-off is given here; in the data, active = GI50 up to about 1.1 µM and inactive = higher.

Columns and labels:
Assay in all cases: inhibition of tumour cell growth, NCI panel, 48 h
[1] = tested on: CCRF-CEM
[2] = tested on: DU-145
[3] = tested on: HT-29
[4] = tested on: Hs-578T
[5] = tested on: IGROV-1
[6] = tested on: K562
[7] = tested on: M14
[8] = tested on: MCF7
[9] = tested on: NCI-H23
[10] = tested on: NCI-H522
[11] = tested on: OVCAR-3
[12] = tested on: OVCAR-5
[13] = tested on: OVCAR-8
[14] = tested on: SF-268
[15] = tested on: SK-MEL-28
[16] = tested on: SK-OV-3
[17] = tested on: SN12C
[18] = tested on: UO-31
[19] = tested on: HL-60
[20] = tested on: SF-539

| SMILES | GI50 [1] | GI50 [2] | GI50 [3] | GI50 [4] | GI50 [5] | GI50 [6] | GI50 [7] | GI50 [8] | GI50 [9] | GI50 [10] | GI50 [11] | GI50 [12] | GI50 [13] | GI50 [14] | GI50 [15] | GI50 [16] | GI50 [17] | GI50 [18] | GI50 [19] | GI50 [20] |
| --- | --- | --- | --- | --- | --- | --- | --- | --- | --- | --- | --- | --- | --- | --- | --- | --- | --- | --- | --- | --- |
| O=[N+]([O-])c1ccc(/N=N\c2c(O)ccc3ccccc23)c([N+](=O)[O-])c1 | 29.4 µM (inactive) | > 100 µM (inactive) | > 100 µM (inactive) | > 100 µM (inactive) | > 32.7 µM (inactive) | 19.8 µM (inactive) | > 100 µM (inactive) | > 100 µM (inactive) | > 100 µM (inactive) | > 100 µM (inactive) | > 100 µM (inactive) | > 100 µM (inactive) | > 100 µM (inactive) | > 100 µM (inactive) | > 100 µM (inactive) | > 100 µM (inactive) | > 100 µM (inactive) | > 100 µM (inactive) | – | – |
| C[C@]12CCC(=O)C=C1CC[C@@H]1[C@@H]2CC[C@]2(C)C(=O)/C(=C\c3ccccc3)C[C@@H]12 | 2.8 µM (inactive) | 33.5 µM (inactive) | 19.6 µM (inactive) | – | 51.3 µM (inactive) | > 100 µM (inactive) | 22.4 µM (inactive) | 19.1 µM (inactive) | 14.2 µM (inactive) | – | 22.1 µM (inactive) | 50 µM (inactive) | 21.7 µM (inactive) | – | > 46.8 µM (inactive) | 72.3 µM (inactive) | 15.1 µM (inactive) | 25.7 µM (inactive) | 9.79 µM (inactive) | 21.6 µM (inactive) |
| COc1cc(C2C(C(=O)Nc3ccc([N+](=O)[O-])cc3)=C(C)NC(C)=C2C(=O)Nc2ccc([N+](=O)[O-])cc2)ccc1O | 30.3 µM (inactive) | – | 19.4 µM (inactive) | – | 24.9 µM (inactive) | 13.5 µM (inactive) | 23.9 µM (inactive) | – | 26.7 µM (inactive) | 15.8 µM (inactive) | 22.7 µM (inactive) | 35.6 µM (inactive) | 19.9 µM (inactive) | 23.2 µM (inactive) | 4.16 µM (inactive) | 27.9 µM (inactive) | 18.4 µM (inactive) | 19.1 µM (inactive) | 0.515 µM (active) | 20.9 µM (inactive) |
| Nc1nc2c(ncn2C2OC(CO)C(O)C2N)c(=O)[nH]1 (stereo not drawn) | 40.1 µM (inactive) | – | > 100 µM (inactive) | – | > 100 µM (inactive) | 86.9 µM (inactive) | > 100 µM (inactive) | – | > 100 µM (inactive) | > 100 µM (inactive) | > 100 µM (inactive) | > 100 µM (inactive) | > 100 µM (inactive) | > 100 µM (inactive) | > 100 µM (inactive) | > 100 µM (inactive) | > 100 µM (inactive) | > 100 µM (inactive) | 97.9 µM (inactive) | > 100 µM (inactive) |
| CC(=O)Nc1ccc(-c2nnc(SCC(=O)Nc3ccc(C)cc3)o2)cc1 | 24.3 µM (inactive) | – | 17 µM (inactive) | – | 12.9 µM (inactive) | 42.4 µM (inactive) | 16.1 µM (inactive) | – | 15.7 µM (inactive) | 18.2 µM (inactive) | 22.4 µM (inactive) | 19.6 µM (inactive) | 27.7 µM (inactive) | 20.1 µM (inactive) | 16.1 µM (inactive) | 49.2 µM (inactive) | 15.8 µM (inactive) | 47.6 µM (inactive) | 27.8 µM (inactive) | 13.5 µM (inactive) |
| COc1cc2c(cc1OC)C1c3ccccc3CCN1CCC2.[O-][Cl+3]([O-])([O-])O (stereo not drawn) | > 100 µM (inactive) | > 100 µM (inactive) | 69.7 µM (inactive) | – | > 100 µM (inactive) | 76 µM (inactive) | > 100 µM (inactive) | > 100 µM (inactive) | – | – | > 100 µM (inactive) | > 100 µM (inactive) | > 100 µM (inactive) | > 100 µM (inactive) | > 100 µM (inactive) | > 100 µM (inactive) | > 100 µM (inactive) | 48.4 µM (inactive) | 68.5 µM (inactive) | > 100 µM (inactive) |
| O=C(Nc1ccc2ncccc2c1)Nc1ccc2ncccc2c1 | > 100 µM (inactive) | > 100 µM (inactive) | > 100 µM (inactive) | > 100 µM (inactive) | > 100 µM (inactive) | > 100 µM (inactive) | > 100 µM (inactive) | > 100 µM (inactive) | > 100 µM (inactive) | > 100 µM (inactive) | > 100 µM (inactive) | > 100 µM (inactive) | > 100 µM (inactive) | > 100 µM (inactive) | > 100 µM (inactive) | > 100 µM (inactive) | > 100 µM (inactive) | > 100 µM (inactive) | – | > 100 µM (inactive) |
| O=[N+]([O-])C(=C1Nc2ccccc2N1)/C(Cl)=C(/Cl)N1CCOCC1 | 50.8 µM (inactive) | – | > 100 µM (inactive) | 34.6 µM (inactive) | – | 43.3 µM (inactive) | 88.5 µM (inactive) | 45.8 µM (inactive) | 29.3 µM (inactive) | – | 26.7 µM (inactive) | > 100 µM (inactive) | 28.8 µM (inactive) | 22.6 µM (inactive) | > 100 µM (inactive) | > 100 µM (inactive) | > 100 µM (inactive) | > 100 µM (inactive) | – | > 100 µM (inactive) |
